Target: T1, GPR86 (P2Y13) human receptor (Homo sapiens, UniProt Q9BPV8, T179M)
T1 sequence (Q9BPV8 22-354 T179M): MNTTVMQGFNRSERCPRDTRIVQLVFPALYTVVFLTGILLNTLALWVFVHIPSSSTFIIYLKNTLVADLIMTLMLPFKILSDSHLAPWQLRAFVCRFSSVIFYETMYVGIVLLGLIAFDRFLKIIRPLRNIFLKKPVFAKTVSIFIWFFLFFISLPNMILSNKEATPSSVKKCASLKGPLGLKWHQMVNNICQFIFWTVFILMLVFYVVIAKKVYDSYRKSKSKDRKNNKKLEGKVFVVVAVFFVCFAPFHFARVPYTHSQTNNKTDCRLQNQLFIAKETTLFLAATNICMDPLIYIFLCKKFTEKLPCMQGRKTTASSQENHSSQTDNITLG
Assay: cAMP accumulation in CHO-K1 cells expressing GPR86 in the presence of forskolin
Type: cell-based
Design: expressed in transfected cells; host or cells: 1321N1 astrocytoma clone AG32 (stably expressing Gα16 from pERAEQ2), G418-selected
Settings: forskolin 4 μM
Procedure: Secondary messenger assays, amenable to high throughput screening analysis, are performed including but not limited to the measurement of intracellular levels of cAMP, intracellular inositol phosphate, intracellular diacylglycerol concentrations, arachinoid acid concentration or MAP kinase or tyrosine kinase activity (as decribed above). For example, the GPR86 activity, as measured in a cyclic AMP assay, is quantified by a radioimmunoassay as previously described (26). Results are compared to the baseline level of GPR86 activity obtained from recombinant cells according to the invention in the presence of ADP but in the absence of added modulator compound. Wells showing at least 2 fold, preferably 5 fold, more preferably 10 fold and most preferably a 100 fold or more increase or decrease in GPR86 activity as compared to the level of activity in the absence of modulator, are selected for further analysis.
The potential effect of nucleotides was tested on the cAMP pathway in CHO-K1 cells expressing the human GPR86 receptor. […] CHO-K1 transfected cells were incubated in the presence of various concentrations of ADP and 4 μM forskolin for 10 min. The data represent the mean±S.D. of triplicate experimental points obtained in one representative experiment of three and 2MeSADP in the presence of forskolin 4 μM. […] CHO-K1 transfected cells were incubated in the presence of various concentrations of ADP an 4 μM forskolin for 10 minutes. The data represent the mean+/−S.D. of triplicate experimental points obtained in one representative experiment of three. CHO-K1 transfected cells were pre-incubated with or without 100 ng/ml pertussis toxin for 18 h and then incubated in the presence of ADP (100 nM and 100 μM) or water (CONT) and 4 μM forskolin for 10 min. The data represent the mean±S.D. of triplicate experimental points obtained in one representative experiment of two. The biphasic effect of ADP on adenylyl cyclase has been reproduced in 1321N1 cells transfected with the human GPR86 receptor.

| Compound | effect on cAMP level at low concentrations | effect on adenylyl cyclase / cAMP at high concentration (10 μM) | effect on cAMP level after pertussis toxin pretreatment (ADP 100 nM and 100 μM, 18 h pretreatment with 100 ng/ml pertussis toxin) | maximal inhibition percentage of cAMP (at 30 nM) [%] | IC50 (10 min, mean±S.D. of three independent experiments, read-out: IC50, inhibition of cAMP level) [nM] |
| --- | --- | --- | --- | --- | --- |
| CSc1nc(N)c2ncn([C@@H]3O[C@H](COP(=O)(O)OP(=O)(O)O)[C@@H](O)[C@H]3O)c2n1 [2MeSADP, 2-methylthio-ADP] | Significant inhibitions of the cAMP level | – | – | – | – |
| Nc1ncnc2c1ncn2[C@@H]1O[C@H](COP(=O)(O)OP(=O)(O)O)[C@@H](O)[C@H]1O [ADP] | Significant inhibitions of the cAMP level | small increase | significant increases of the cAMP level | 52±7 | 1.5 ± 0.6 |

Reference: patent US7422846B2, “Natural ligand for orphan G protein coupled receptor GPR86 and methods of use” (Euroscreen S.A, priority 2001, dated 2008)
